From patent US20070117770A1, “Human ribosomal DNA (rDNA) and ribosomal RNA (rRNA) nucleic acids and uses thereof” (Cylene Pharmaceuticals, Inc., priority 2005, published 2007)

What was measured:
[1] = target: MAPK2(m) (Mus musculus, UniProt P63085); assay: Protein kinase inhibition assay; assay type: biochemical; details: read-out: percent residual activity of MAPK2(m)
Procedure: (§1) Certain compounds were tested for activity in protein kinase inhibition assays. All substrates were dissolved and diluted to working stocks in de-ionized water, apart from histone H1 (10× working stock in 20 mM MOPS pH 7.0), PDKtide (10× working stock in 50 mM Tris pH 7.0) ATF2 (which is typically stored at a 20× working stock in 50 mM Tris pH 7.5, 150 mM NaCl, 0.1 mM EGTA, 0.03% Brij-35, 50% glycerol, 1 mM benzamidine, 0.2 mM PMSF and 0.1% R-mercaptoethanol), KKLNRTLSFAEPG (SEQ ID NO:203) and RRRLSFAEPG (SEQ ID NO:204) (50 mM HEPES pH 7.4) and GGEEEEYFELVKKKK (SEQ ID NO:205) (20 mM MOPS pH 7.0). All kinases were pre-diluted to a 10× working concentration prior to addition into the assay. The composition of the dilution buffer for each kinase is detailed below.
(§2) In a final reaction volume of 25 μl, MAPK2 (m) (5-10 mU) is incubated with 25 mM Tris pH 7.5, 0.02 mM EGTA, 0.33 mg/ml myelin basic protein, 10 mM MgAcetate and [gamma-33P-ATP] (specific activity approx. 500 cpm/pmol, concentration as required). The reaction is initiated by the addition of the MgATP mix. After incubation for 40 minutes at room temperature, the reaction is stopped by the addition of 5 μl of a 3% phosphoric acid solution. 10 μpl of the reaction is then spotted onto a P30 filtermat and washed three times for 5 minutes in 75 mM phosphoric acid and once in methanol prior to drying and scintillation counting.

[2] = target: NEK7(h) (Homo sapiens, UniProt Q8TDX7); assay: Protein kinase inhibition assay; assay type: biochemical; details: read-out: percent residual activity of NEK7(h)
Procedure: as §1
as §2, with “μl, NEK7 (h)” for “μl, MAPK2 (m)”, “with 8” for “with 25”, “mM MOPS” for “mM Tris”, “pH 7.0, 0.2” for “pH 7.5, 0.02”, “mM EDTA, 300 μM FLAKSFGSPNRAYKK (SEQ ID NO:221),” for “mM EGTA, 0.33 mg/ml myelin basic protein,”, “10 pi” for “10 μpl”

[3] = target: PKCδ(h) (Homo sapiens, UniProt Q05655); assay: Protein kinase inhibition assay; assay type: biochemical; details: read-out: percent residual activity of PKCδ(h)
Procedure: as §1
In a final reaction volume of 25 μl, PKCδ (h) (5-10 mU) is incubated with 20 mM HEPES pH 7.4, 0.03% Triton X-100, 0.1 mg/ml phosphatidylserine, 10 μg/ml diacylglycerol, 50 μM ERMRPRKRQGSVRRRV (SEQ ID NO:224), 10 mM MgAcetate and [gamma-33P-ATP] (specific activity approx. 500 cpm/pmol, concentration as required). The reaction is initiated by the addition of the MgATP mix. After incubation for 40 minutes at room temperature, the reaction is stopped by the addition of 5 μl of a 3% phosphoric acid solution. […]

[4] = target: Ron(h) (Homo sapiens, UniProt Q04912); assay: Protein kinase inhibition assay; assay type: biochemical; details: read-out: percent residual activity of Ron(h)
Procedure: as §1
as §2, with “μl, Ron (h)” for “μl, MAPK2 (m)”, “with 8” for “with 25”, “mM MOPS” for “mM Tris”, “pH 7.0, 0.2” for “pH 7.5, 0.02”, “mM EDTA, 250 μM KKSRGDYMTMQIG (SEQ ID NO:210),” for “mM EGTA, 0.33 mg/ml myelin basic protein,”, “10 μl” for “10 μpl”

[5] = target: ZIPK(h) (Homo sapiens, UniProt O43293); assay: Protein kinase inhibition assay; assay type: biochemical; details: read-out: percent residual activity of ZIPK(h)
Procedure: as §1
as §2, with “μl, ZIPK (h)” for “μl, MAPK2 (m)”, “with 8” for “with 25”, “mM MOPS” for “mM Tris”, “pH 7.0, 0.2” for “pH 7.5, 0.02”, “mM EDTA, 250 μM KKLNRTLSFAEPG (SEQ ID NO:203),” for “mM EGTA, 0.33 mg/ml myelin basic protein,”, “10 μl” for “10 μpl”

[6] = tested on: HCT116 cells; assay: Total (nucleolar) RNA synthesis (3H-uridine incorporation); assay type: cell-based; parameters: 3H-uridine incorporation, time course: unit of the concentration uncertain
Procedure: Effects of compound A-1 and compound B-1 on DNA synthesis, RNA synthesis and protein synthesis were determined in HCT116 cells. HCT116 cells were plated overnight at 100,000 cells per mL. Next day cells were treated with increasing amounts of either compound A-1 or compound B-1 followed by one hour incubation with BrdU label (from a BrdU Cell proliferation Assay Kit, Calbiochem) to monitor DNA synthesis; […] of ^3H-uridine to monitor total RNA synthesis; […] of ^3H-methionine to monitor protein synthesis or plain media to monitor RNA Polymerase II-dependent RNA synthesis. DNA synthesis was assessed using a BrdU-ELISA (BrdU Cell proliferation Assay Kit, Calbiochem). To measure total RNA synthesis, total RNA from treated cells was isolated with a RNease kit (QIAGEN), levels of total RNA were assessed with Ribogreen reagent (Invitrogen) and the newly synthesized tritiated RNA was measured in a scintillation Counter (Perkin Elmer). To measure effects on protein synthesis, cells were lysed in a RIPA buffer, and total protein was precipitated with 10% TCA on a glass-filters. Newly synthesized tritiated protein was measured in a scintillation Counter (Perkin Elmer). Effects of drugs on […] RNA synthesis were assessed by monitoring levels of a c-myc mRNA, which has a relatively short half-life of approximately 30 minutes, by Taqman qRT-PCR (ABI).

NEK7(h), sequence (Q8TDX7 whole entry): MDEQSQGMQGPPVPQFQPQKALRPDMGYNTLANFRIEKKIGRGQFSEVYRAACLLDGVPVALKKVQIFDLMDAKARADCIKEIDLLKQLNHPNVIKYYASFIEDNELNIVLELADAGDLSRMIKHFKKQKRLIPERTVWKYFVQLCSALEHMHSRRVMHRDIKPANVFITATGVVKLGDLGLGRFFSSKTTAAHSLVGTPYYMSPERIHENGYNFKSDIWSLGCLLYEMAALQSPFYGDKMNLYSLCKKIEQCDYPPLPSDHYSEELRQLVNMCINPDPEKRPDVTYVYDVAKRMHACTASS
ZIPK(h), sequence (O43293 whole entry): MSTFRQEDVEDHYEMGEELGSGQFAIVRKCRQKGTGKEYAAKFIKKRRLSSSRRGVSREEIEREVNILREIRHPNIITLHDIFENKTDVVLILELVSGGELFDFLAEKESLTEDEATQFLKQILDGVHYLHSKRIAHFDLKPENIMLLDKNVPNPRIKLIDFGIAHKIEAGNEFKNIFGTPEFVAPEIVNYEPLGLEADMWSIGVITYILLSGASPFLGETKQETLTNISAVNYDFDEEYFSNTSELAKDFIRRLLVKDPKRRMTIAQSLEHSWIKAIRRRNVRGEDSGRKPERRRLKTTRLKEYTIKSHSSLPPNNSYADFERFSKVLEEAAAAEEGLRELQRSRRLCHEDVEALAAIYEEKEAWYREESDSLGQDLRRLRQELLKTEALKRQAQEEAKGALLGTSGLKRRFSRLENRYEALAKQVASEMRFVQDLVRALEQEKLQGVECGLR
PKCδ(h), sequence (Q05655 whole entry): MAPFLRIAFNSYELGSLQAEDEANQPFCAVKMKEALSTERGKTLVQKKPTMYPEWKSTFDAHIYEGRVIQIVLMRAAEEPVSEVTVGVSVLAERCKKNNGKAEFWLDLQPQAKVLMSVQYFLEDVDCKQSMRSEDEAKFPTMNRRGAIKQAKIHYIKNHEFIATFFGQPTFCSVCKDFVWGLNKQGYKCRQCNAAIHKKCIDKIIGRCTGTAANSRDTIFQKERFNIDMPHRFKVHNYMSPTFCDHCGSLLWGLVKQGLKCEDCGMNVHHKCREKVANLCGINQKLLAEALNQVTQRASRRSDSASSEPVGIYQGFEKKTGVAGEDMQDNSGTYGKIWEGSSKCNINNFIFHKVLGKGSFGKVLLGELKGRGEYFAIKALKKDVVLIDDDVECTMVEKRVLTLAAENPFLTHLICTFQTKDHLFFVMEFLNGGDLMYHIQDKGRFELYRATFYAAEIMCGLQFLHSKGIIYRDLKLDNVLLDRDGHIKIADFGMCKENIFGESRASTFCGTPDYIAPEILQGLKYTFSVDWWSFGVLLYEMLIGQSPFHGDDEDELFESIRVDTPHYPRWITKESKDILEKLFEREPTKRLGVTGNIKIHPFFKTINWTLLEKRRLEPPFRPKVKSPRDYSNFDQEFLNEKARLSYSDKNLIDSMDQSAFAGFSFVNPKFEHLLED
Ron(h), sequence (Q04912 25-1400): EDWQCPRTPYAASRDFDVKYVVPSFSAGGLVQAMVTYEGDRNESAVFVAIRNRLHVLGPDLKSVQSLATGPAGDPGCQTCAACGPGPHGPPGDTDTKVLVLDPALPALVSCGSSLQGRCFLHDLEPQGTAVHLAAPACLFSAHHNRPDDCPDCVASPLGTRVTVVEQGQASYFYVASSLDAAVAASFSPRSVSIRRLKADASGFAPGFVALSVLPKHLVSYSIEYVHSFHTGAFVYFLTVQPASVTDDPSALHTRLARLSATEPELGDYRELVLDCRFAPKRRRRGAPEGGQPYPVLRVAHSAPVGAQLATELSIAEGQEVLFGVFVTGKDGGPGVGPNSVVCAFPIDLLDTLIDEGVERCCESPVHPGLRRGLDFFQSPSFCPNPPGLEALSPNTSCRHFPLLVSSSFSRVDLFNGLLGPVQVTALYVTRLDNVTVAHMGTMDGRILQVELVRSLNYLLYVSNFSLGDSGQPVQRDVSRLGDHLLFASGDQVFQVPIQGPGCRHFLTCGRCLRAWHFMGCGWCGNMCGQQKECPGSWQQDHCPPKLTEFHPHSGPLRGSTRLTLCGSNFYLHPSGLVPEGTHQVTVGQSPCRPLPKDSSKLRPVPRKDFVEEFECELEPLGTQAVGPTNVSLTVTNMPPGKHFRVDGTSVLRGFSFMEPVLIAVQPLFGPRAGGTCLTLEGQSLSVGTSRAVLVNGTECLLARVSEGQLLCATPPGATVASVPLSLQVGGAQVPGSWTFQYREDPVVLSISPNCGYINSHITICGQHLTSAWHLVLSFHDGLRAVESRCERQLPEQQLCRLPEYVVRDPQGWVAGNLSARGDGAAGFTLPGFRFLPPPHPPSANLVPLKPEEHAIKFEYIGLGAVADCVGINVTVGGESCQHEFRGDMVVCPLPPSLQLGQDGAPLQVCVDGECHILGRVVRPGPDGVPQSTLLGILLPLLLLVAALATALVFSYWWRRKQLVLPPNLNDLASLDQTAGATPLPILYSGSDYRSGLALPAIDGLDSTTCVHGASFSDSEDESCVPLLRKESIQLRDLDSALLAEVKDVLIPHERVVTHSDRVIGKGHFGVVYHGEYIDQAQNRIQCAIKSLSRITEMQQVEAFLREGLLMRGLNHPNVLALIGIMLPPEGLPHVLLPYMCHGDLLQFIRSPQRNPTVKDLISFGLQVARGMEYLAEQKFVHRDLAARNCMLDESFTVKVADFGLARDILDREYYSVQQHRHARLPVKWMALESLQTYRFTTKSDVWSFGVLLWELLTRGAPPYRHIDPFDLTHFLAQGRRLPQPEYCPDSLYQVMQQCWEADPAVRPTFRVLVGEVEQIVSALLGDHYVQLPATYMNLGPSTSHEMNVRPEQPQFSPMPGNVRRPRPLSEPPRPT
MAPK2(m), sequence (P63085 whole entry): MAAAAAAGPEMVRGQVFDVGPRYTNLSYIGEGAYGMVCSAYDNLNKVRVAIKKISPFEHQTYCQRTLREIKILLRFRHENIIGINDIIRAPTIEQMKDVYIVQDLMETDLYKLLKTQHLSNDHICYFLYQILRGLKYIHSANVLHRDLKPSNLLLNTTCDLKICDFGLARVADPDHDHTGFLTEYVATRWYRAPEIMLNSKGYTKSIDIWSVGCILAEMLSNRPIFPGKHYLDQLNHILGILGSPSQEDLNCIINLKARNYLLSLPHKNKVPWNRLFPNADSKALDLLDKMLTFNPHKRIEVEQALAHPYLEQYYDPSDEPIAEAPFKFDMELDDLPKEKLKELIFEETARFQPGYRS

SMILES	remaining activity at 2.5 µM [1] [%]	remaining activity at 2.5 µM [2] [%]	remaining activity at 2.5 µM [3] [%]	remaining activity at 2.5 µM [4] [%]	remaining activity at 2.5 µM [5] [%]	concentration that significantly reduced nucleolar RNA synthesis [6] [µM]	3H-uridine incorporation, time course ([6]; 3 (unit uncertain) for 15 min)	3H-uridine incorporation, time course ([6]; 10 (unit uncertain) for 30 min)
CN1CCCC1CCNC(=O)c1cn2c3c(c(N4CCC(c5cnccn5)C4)c(F)cc3c1=O)Oc1cc3ccccc3cc1-2 (centres unmarked) [Compound A-1]	95	102	105	71	27	1	substantially inhibited	–
CC(=O)N1CCN(c2ccc3c(=O)c(C(=O)NCCN4CCCC4)c4n(C)c5ccccc5n4c3n2)CC1 [Compound B-1]	102	101	100	95	116	10	–	substantially inhibited
